Biological target: PD-1/PD-L1 (Homo sapiens (Human), UniProt Q9NZQ7)
Experiment: PD-1/PD-L1 binding assay (HTRF)
Procedure, shortened: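 Fc-tagged human PD-1 (25-167) and His-tagged PD-L1 (19-238), listed as […] and 10 nM final, preincubated 40 min with inhibitors in PBS pH 7.4, 0.05% Tween-20, 0.1% BSA, 1% DMSO, 25 °C. Eu anti-IgG/APC anti-His added, 60 min, 665/620 nm HTRF ratio; IC50 fitted from percent control activity.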

Sequence of PD-1/PD-L1 (Q9NZQ7 19-238): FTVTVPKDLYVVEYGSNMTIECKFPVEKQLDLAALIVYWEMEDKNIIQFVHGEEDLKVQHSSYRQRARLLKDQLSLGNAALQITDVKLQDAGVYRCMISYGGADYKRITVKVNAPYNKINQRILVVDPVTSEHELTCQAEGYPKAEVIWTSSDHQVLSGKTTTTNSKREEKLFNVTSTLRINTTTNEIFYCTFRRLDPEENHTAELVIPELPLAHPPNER

Row | IC50 | Structure (SMILES)
1 | ≤ 10 nM | Cc1c(NC(=O)c2nc3c(n2C)CCN(C)C3)cccc1-c1cccc(NC(=O)c2nc3c(n2C)CCN(CC24CCC(C(=O)O)(CC2)C4)C3)c1Cl [Example 119, 4-((2-((2-chloro-3′-(1,5-dimethyl-4,5,6,7-tetrahydro-1H-imidazo[4,5-c]pyridine-2-carboxamido)-2′-methyl-[1,1′-biphenyl]-3-yl)carbamoyl)-1-methyl-1,4,6,7-tetrahydro-5H-imidazo[4,5-c]pyridin-5-yl)methyl)bicyclo[2.2.1]heptane-1-carboxylic acid]
2 | ≤ 10 nM | CCC1(C(=O)O)CCC(N2CCc3c(nc(C(=O)Nc4cccc(-c5cccc(NC(=O)c6nc7c(n6C)CCN(C)C7)c5C)c4Cl)n3C)C2)CC1 (stereo not shown) [Example 121, 4-(2-((2-chloro-3′-(1,5-dimethyl-4,5,6,7-tetrahydro-1H-imidazo[4,5-c]pyridine-2-carboxamido)-2′-methyl-[1,1′-biphenyl]-3-yl)carbamoyl)-1-methyl-1,4,6,7-tetrahydro-5H-imidazo[4,5-c]pyridin-5-yl)-1-ethylcyclohexane-1-carboxylic acid]
3 | ≤ 10 nM | Cc1c(NC(=O)c2nc3c(n2C)CCN(C2CCOCC2)C3)cccc1-c1cccc(NC(=O)c2nc3c(n2C)CCN(CC[C@H]2CC[C@H](C(=O)O)CC2)C3)c1Cl [Example 122, trans-4-(2-(2-((2-chloro-2′-methyl-3′-(1-methyl-5-(tetrahydro-2H-pyran-4-yl)-4,5,6,7-tetrahydro-1H-imidazo[4,5-c]pyridine-2-carboxamido)-[1,1′-biphenyl]-3-yl)carbamoyl)-1-methyl-1,4,6,7-tetrahydro-5H-imidazo[4,5-c]pyridin-5-yl)ethyl)cyclohexane-1-carboxylic acid]
4 | ≤ 10 nM | Cc1c(NC(=O)c2nc3c(n2C)CCN(C2CCOCC2)C3)cccc1-c1cccc(NC(=O)c2nc3c(n2C)CCN(C[C@H]2CC[C@H](C(=O)O)CC2)C3)c1Cl [Example 123, trans-4-((2-((2-chloro-2′-methyl-3′-(1-methyl-5-(tetrahydro-2H-pyran-4-yl)-4,5,6,7-tetrahydro-1H-imidazo[4,5-c]pyridine-2-carboxamido)-[1,1′-biphenyl]-3-yl)carbamoyl)-1-methyl-1,4,6,7-tetrahydro-5H-imidazo[4,5-c]pyridin-5-yl)methyl)cyclohexane-1-carboxylic acid]
5 | ≤ 10 nM | Cc1c(NC(=O)c2nc3c(n2C)CCN(C2CCOCC2)C3)cccc1-c1cccc(NC(=O)c2nc3c(n2C)CCN(CCc2ccc(C(=O)O)cc2)C3)c1Cl [Example 124, 4-(2-(2-((2-chloro-2′-methyl-3′-(1-methyl-5-(tetrahydro-2H-pyran-4-yl)-4,5,6,7-tetrahydro-1H-imidazo[4,5-c]pyridine-2-carboxamido)-[1,1′-biphenyl]-3-yl)carbamoyl)-1-methyl-1,4,6,7-tetrahydro-5H-imidazo[4,5-c]pyridin-5-yl)ethyl)benzoic acid]
6 | ≤ 10 nM | Cc1c(NC(=O)c2nc3c(n2C)CCN(C2CCOCC2)C3)cccc1-c1cccc(NC(=O)c2nc3c(n2C)CCN(C2CCC(C(=O)O)CC2)C3)c1Cl (stereo not shown) [Example 125, 4-(2-((2-chloro-2′-methyl-3′-(1-methyl-5-(tetrahydro-2H-pyran-4-yl)-4,5,6,7-tetrahydro-1H-imidazo[4,5-c]pyridine-2-carboxamido)-[1,1′-biphenyl]-3-yl)carbamoyl)-1-methyl-1,4,6,7-tetrahydro-5H-imidazo[4,5-c]pyridin-5-yl)cyclohexane-1-carboxylic acid]
7 | ≤ 10 nM | Cc1c(NC(=O)c2nc3c(n2C)CCNC3)cccc1-c1cccc(NC(=O)c2nc3c(n2C)CCN(CC[C@H]2CC[C@H](C(=O)O)CC2)C3)c1Cl [Example 126, trans-4-(2-(2-((2-chloro-2′-methyl-3′-(1-methyl-4,5,6,7-tetrahydro-1H-imidazo[4,5-c]pyridine-2-carboxamido)-[1,1′-biphenyl]-3-yl)carbamoyl)-1-methyl-1,4,6,7-tetrahydro-5H-imidazo[4,5-c]pyridin-5-yl)ethyl)cyclohexane-1-carboxylic acid]
8 | ≤ 10 nM | CCN1CCc2c(nc(C(=O)Nc3cccc(-c4cccc(NC(=O)c5nc6c(n5C)CCN(CC[C@H]5CC[C@H](C(=O)O)CC5)C6)c4Cl)c3C)n2C)C1 [Example 127, trans-4-(2-(2-((2-chloro-3′-(5-ethyl-1-methyl-4,5,6,7-tetrahydro-1H-imidazo[4,5-c]pyridine-2-carboxamido)-2′-methyl-[1,1′-biphenyl]-3-yl)carbamoyl)-1-methyl-1,4,6,7-tetrahydro-5H-imidazo[4,5-c]pyridin-5-yl)ethyl)cyclohexane-1-carboxylic acid]
9 | ≤ 10 nM | Cc1c(NC(=O)c2nc3c(n2C)CCN(CC2CC2)C3)cccc1-c1cccc(NC(=O)c2nc3c(n2C)CCN(CC[C@H]2CC[C@H](C(=O)O)CC2)C3)c1Cl [Example 128, trans-4-(2-(2-((2-chloro-3′-(5-(cyclopropylmethyl)-1-methyl-4,5,6,7-tetrahydro-1H-imidazo[4,5-c]pyridine-2-carboxamido)-2′-methyl-[1,1′-biphenyl]-3-yl)carbamoyl)-1-methyl-1,4,6,7-tetrahydro-5H-imidazo[4,5-c]pyridin-5-yl)ethyl)cyclohexane-1-carboxylic acid]
10 | ≤ 10 nM | Cc1c(NC(=O)c2nc3c(n2C)CCN(C(C)C)C3)cccc1-c1cccc(NC(=O)c2nc3c(n2C)CCN(CC[C@H]2CC[C@H](C(=O)O)CC2)C3)c1Cl [Example 129, trans-4-(2-(2-((2-chloro-3′-(5-isopropyl-1-methyl-4,5,6,7-tetrahydro-1H-imidazo[4,5-c]pyridine-2-carboxamido)-2′-methyl-[1,1′-biphenyl]-3-yl)carbamoyl)-1-methyl-1,4,6,7-tetrahydro-5H-imidazo[4,5-c]pyridin-5-yl)ethyl)cyclohexane-1-carboxylic acid]
11 | ≤ 10 nM | Cc1c(NC(=O)c2nc3c(n2C)CCN(C2CCCC2)C3)cccc1-c1cccc(NC(=O)c2nc3c(n2C)CCN(CC[C@H]2CC[C@H](C(=O)O)CC2)C3)c1Cl [Example 130, trans-4-(2-(2-((2-chloro-3′-(5-cyclopentyl-1-methyl-4,5,6,7-tetrahydro-1H-imidazo[4,5-c]pyridine-2-carboxamido)-2′-methyl-[1,1′-biphenyl]-3-yl)carbamoyl)-1-methyl-1,4,6,7-tetrahydro-5H-imidazo[4,5-c]pyridin-5-yl)ethyl)cyclohexane-1-carboxylic acid]
12 | ≤ 10 nM | Cc1c(NC(=O)c2nc3c(n2C)CCN(C2CCCCC2)C3)cccc1-c1cccc(NC(=O)c2nc3c(n2C)CCN(CC[C@H]2CC[C@H](C(=O)O)CC2)C3)c1Cl [Example 131, trans-4-(2-(2-((2-chloro-3′-(5-cyclohexyl-1-methyl-4,5,6,7-tetrahydro-1H-imidazo[4,5-c]pyridine-2-carboxamido)-2′-methyl-[1,1′-biphenyl]-3-yl)carbamoyl)-1-methyl-1,4,6,7-tetrahydro-5H-imidazo[4,5-c]pyridin-5-yl)ethyl)cyclohexane-1-carboxylic acid]
13 | ≤ 10 nM | Cc1c(NC(=O)c2nc3c(n2C)CCN(CCO)C3)cccc1-c1cccc(NC(=O)c2nc3c(n2C)CCN(CC[C@H]2CC[C@H](C(=O)O)CC2)C3)c1Cl [Example 132, trans-4-(2-(2-((2-chloro-3′-(5-(2-hydroxyethyl)-1-methyl-4,5,6,7-tetrahydro-1H-imidazo[4,5-c]pyridine-2-carboxamido)-2′-methyl-[1,1′-biphenyl]-3-yl)carbamoyl)-1-methyl-1,4,6,7-tetrahydro-5H-imidazo[4,5-c]pyridin-5-yl)ethyl)cyclohexane-1-carboxylic acid]
14 | ≤ 10 nM | Cc1c(NC(=O)c2nc3c(n2C)CCN(C2CCOCC2)C3)cccc1-c1cccc(NC(=O)c2nc3c(n2C)CCN(C[C@H]2CC[C@@H](C(=O)O)CC2)C3)c1Cl [Example 136, cis-4-((2-((2-chloro-2′-methyl-3′-(1-methyl-5-(tetrahydro-2H-pyran-4-yl)-4,5,6,7-tetrahydro-1H-imidazo[4,5-c]pyridine-2-carboxamido)-[1,1′-biphenyl]-3-yl)carbamoyl)-1-methyl-1,4,6,7-tetrahydro-5H-imidazo[4,5-c]pyridin-5-yl)methyl)cyclohexane-1-carboxylic Acid]
15 | ≤ 10 nM | C[C@H](O)CN1CCc2c(nc(C(=O)Nc3cccc(-c4cccc(NC(=O)c5nc6c(n5C)CCN(CC57CCC(C(=O)O)(CC5)C7)C6)c4Cl)c3Cl)n2C)C1 [Example 181, (S)-4-((2-(2,2′-dichloro-3′-(5-(2-hydroxypropyl)-1-methyl-4,5,6,7-tetrahydro-1H-imidazo[4,5-c]pyridine-2-carboxamido)biphenyl-3-ylcarbamoyl)-1-methyl-6,7-dihydro-1H-imidazo[4,5-c]pyridin-5(4H)-yl)methyl)bicyclo[2.2.1]heptane-1-carboxylic acid]
16 | ≤ 10 nM | C[C@@H](O)CN1CCc2c(nc(C(=O)Nc3cccc(-c4cccc(NC(=O)c5nc6c(n5C)CCN(CC57CCC(C(=O)O)(CC5)C7)C6)c4Cl)c3Cl)n2C)C1 [Example 182, (R)-4-((2-(2,2′-dichloro-3′-(5-(2-hydroxypropyl)-1-methyl-4,5,6,7-tetrahydro-1H-imidazo[4,5-c]pyridine-2-carboxamido)biphenyl-3-ylcarbamoyl)-1-methyl-6,7-dihydro-1H-imidazo[4,5-c]pyridin-5(4H)-yl)methyl)bicyclo[2.2.1]heptane-1-carboxylic acid]

From patent US10806785B2, “Immunomodulator compounds and methods of use” (Incyte Corporation, priority 2016, dated 2020)
